Several values for one entry are separate records, joined by “and”; a condition that tells them apart may be missing. Identical values can stand only once.
Key:
Human Pit-2 = biological target: T1, Human Pit-2 (Homo sapiens, UniProt Q08357); test: Pit-2 activity assay (33P phosphate uptake in CHO cells); type: cell-based; conditions: n=1
T1 construct: expressed in transfected cells; host or cells: CHO cells, constitutive expression
T1 sequence (Q08357 1-652): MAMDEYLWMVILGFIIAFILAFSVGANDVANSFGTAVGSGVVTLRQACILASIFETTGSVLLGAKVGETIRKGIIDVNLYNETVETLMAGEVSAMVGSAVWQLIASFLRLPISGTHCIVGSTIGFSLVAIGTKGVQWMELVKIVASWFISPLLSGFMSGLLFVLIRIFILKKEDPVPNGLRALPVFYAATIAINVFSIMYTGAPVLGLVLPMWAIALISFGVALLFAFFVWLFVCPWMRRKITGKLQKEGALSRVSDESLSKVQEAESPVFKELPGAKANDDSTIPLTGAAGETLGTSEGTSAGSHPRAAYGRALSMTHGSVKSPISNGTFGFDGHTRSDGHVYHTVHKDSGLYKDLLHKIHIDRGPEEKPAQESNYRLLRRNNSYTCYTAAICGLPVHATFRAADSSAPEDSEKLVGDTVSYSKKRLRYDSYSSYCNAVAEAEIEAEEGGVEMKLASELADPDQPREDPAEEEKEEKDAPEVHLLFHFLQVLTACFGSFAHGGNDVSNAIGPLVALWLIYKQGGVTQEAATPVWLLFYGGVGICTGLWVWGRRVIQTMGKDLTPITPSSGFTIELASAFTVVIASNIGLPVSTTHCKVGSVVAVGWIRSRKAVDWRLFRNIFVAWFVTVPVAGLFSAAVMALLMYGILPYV
Procedure: Generation of constitutive human Pit-2 and SGLT1 overexpressing CHO cells and activity assays measuring the uptake of ^33P phosphate for 45 minutes at 20°C for Pit-2 and ^14C-α-methyl-D-glucopyranoside for 120 minutes at 37°C for SGLT1, were also described previously.

NHE3 = tested on: T2, NHE3; test: Sodium and phosphate excretion in urine after oral NaH2PO4 bolus in rats; type: in vivo; conditions: 4 h urine; for Phosphorus-to-Creatinine / Sodium-to-Creatinine / Total Urinary Phosphorus / Total Urinary Sodium / Urinary-to-Dietary Phosphate / Urinary-to-Dietary Sodium / Urine Volume: NaH2PO4 bolus
T2 construct: from tissue; host or cells: intestine of living SD rats
Procedure: To assess sodium and phosphate absorption in rats, we took advantage of the increase in urinary sodium and phosphate excretion following an oral bolus of sodium phosphate. Thus, an LY3304000 dependent decrease in urinary sodium and phosphate excretion following an oral bolus dose of sodium phosphate is an indirect measurement of the ability of LY3304000 to inhibit sodium and phosphate absorption in intestine. A dosing solution of 3 mg/kg LY3304000 for a 10 mL/kg dose volume was formulated in 1% HEC. The subsequent dosing solutions of 1, 0.3, 0.1, 0.03, 0.01, 0.003, and 0.001 mg/kg LY3304000 were prepared by serial dilutions with 1% HEC. An NaH2PO4 dosing solution at 690 mg/kg with a 20 mL/kg dosing volume was made in sterile water. Male SD rats were fasted for 4 hours with access to water and then orally dosed at 10 mL/kg with 1% HEC vehicle or varying dose of LY3304000 at 0.001, 0.003, 0.01, 0.03, 0.1, 0.3, 1, and 3 mg/kg. In this and subsequent studies where phosphate absorption is measured, a 4 hour fast was used which is less disruptive to the animal’s normal physiology than the 12 hours fast used to measure acute phosphate uptake into plasma. Fifteen minutes later, rats were dosed with either sterile water or NaH2PO4 solution, and then immediately transferred to metabolic cages. Urine samples were collected from the metabolic cages at 4 hours post sterile water or NaH2PO4 dose. The net urine volume was recorded. Urinary sodium, creatinine, and phosphorus (as a measure of phosphate) were determined using a clinical biochemistry analyzer. The urinary sodium-to-creatinine and phosphorus-to-creatinine ratios were calculated and compared between vehicle and LY3304000 treated groups. The ratios of urinary-to-dietary phosphate (measured as phosphorus) and urinary-to-dietary sodium in urine were compared between vehicle and LY3304000 treated groups.

**Q.** How did the IC50 (Human Pit-2) turn out when `CN1Cc2c(Cl)cc(Cl)cc2[C@H](c2cccc(S(=O)(=O)NCCOCCOCCN/C(=N\C(N)=O)NCCCCN/C(=N/C(N)=O)NCCOCCOCCNS(=O)(=O)c3cccc([C@@H]4CN(C)Cc5c(Cl)cc(Cl)cc54)c3)c2)C1.Cl.Cl` [LY3304000, (Z)-[[4-[[(Z)-N’-carbamoyl-N-[2-[2-[2-[[3-[(4S)-6,8-dichloro-2-methyl-3,4-dihydro-1H-isoquinolin-4-yl]phenyl]sulfonylamino]ethoxy]ethoxy]ethyl]carbamimidoyl]amino]butylamino]-[2-[2-[2-[[3-[(4S)-6,8-dichloro-2-methyl-3,4-dihydro-1H-isoquinolin-4-yl]phenyl]sulfonylamino]ethoxy]ethoxy]ethylamino]methylene]urea dihydrochloride] was run?
**A.** Its IC50 is > 100 µM.

**Q.** What about the Phosphorus-to-Creatinine (NHE3; 0.001 mg/kg po) of the same compound?
**A.** The Phosphorus-to-Creatinine was 14 mg/mg.

**Q.** What about the Sodium-to-Creatinine (NHE3; 0.001 mg/kg po) of the same compound?
**A.** The Sodium-to-Creatinine was 10 mg/mg.

**Q.** What about the “Total Urinary Phosphorus” value (NHE3; 0.001 mg/kg po) of the same compound?
**A.** The value was 12501 µg.

**Q.** What about the “Total Urinary Sodium” value (NHE3; 0.001 mg/kg po) of the same compound?
**A.** Its value is 9084 µg.

**Q.** What about the “Urinary-to-Dietary Phosphate” value (NHE3; 0.001 mg/kg po) of the same compound?
**A.** Its value is 0.337.

**Q.** What about the “Urinary-to-Dietary Sodium” value (NHE3; 0.001 mg/kg po) of the same compound?
**A.** Its value is 0.326.

**Q.** What about the “Urine Volume” value (NHE3; 0.001 mg/kg po) of the same compound?
**A.** The value was 4 mL.

**Q.** And the Phosphorus-to-Creatinine (NHE3; 0.003 mg/kg po)?
**A.** The Phosphorus-to-Creatinine was 14.1 mg/mg.

**Q.** And the Sodium-to-Creatinine (NHE3; 0.003 mg/kg po)?
**A.** The Sodium-to-Creatinine was 12.2 mg/mg.

**Q.** And the “Total Urinary Phosphorus” value (NHE3; 0.003 mg/kg po)?
**A.** Its value is 12997 µg.

**Q.** What about the “Total Urinary Sodium” value (NHE3; 0.003 mg/kg po) of the same compound?
**A.** Its value is 11429 µg.

**Q.** What about the “Urinary-to-Dietary Phosphate” value (NHE3; 0.003 mg/kg po) of the same compound?
**A.** The value was 0.350.

**Q.** What about the “Urinary-to-Dietary Sodium” value (NHE3; 0.003 mg/kg po) of the same compound?
**A.** Its value is 0.413.

**Q.** And the “Urine Volume” value (NHE3; 0.003 mg/kg po)?
**A.** The value was 4.6 mL.

**Q.** What about the Phosphorus-to-Creatinine (NHE3; 0.01 mg/kg po) of the same compound?
**A.** The Phosphorus-to-Creatinine was 15 mg/mg.

**Q.** What about the Sodium-to-Creatinine (NHE3; 0.01 mg/kg po) of the same compound?
**A.** The Sodium-to-Creatinine was 9.8 mg/mg.

**Q.** What about the “Total Urinary Phosphorus” value (NHE3; 0.01 mg/kg po) of the same compound?
**A.** The value was 12066 µg.

**Q.** And the “Total Urinary Sodium” value (NHE3; 0.01 mg/kg po)?
**A.** Its value is 8104 µg.

**Q.** And the “Urinary-to-Dietary Phosphate” value (NHE3; 0.01 mg/kg po)?
**A.** Its value is 0.320.

**Q.** What about the “Urinary-to-Dietary Sodium” value (NHE3; 0.01 mg/kg po) of the same compound?
**A.** The value was 0.290.

**Q.** What about the “Urine Volume” value (NHE3; 0.01 mg/kg po) of the same compound?
**A.** Its value is 3.8 mL.

**Q.** What about the Phosphorus-to-Creatinine (NHE3; 0.03 mg/kg po) of the same compound?
**A.** The Phosphorus-to-Creatinine was 13 mg/mg.

**Q.** And the Sodium-to-Creatinine (NHE3; 0.03 mg/kg po)?
**A.** The Sodium-to-Creatinine was 9.8 mg/mg.

**Q.** And the “Total Urinary Phosphorus” value (NHE3; 0.03 mg/kg po)?
**A.** The value was 9961 µg.

**Q.** What about the “Total Urinary Sodium” value (NHE3; 0.03 mg/kg po) of the same compound?
**A.** Its value is 7637 µg.

**Q.** And the “Urinary-to-Dietary Phosphate” value (NHE3; 0.03 mg/kg po)?
**A.** The value was 0.268.

**Q.** And the “Urinary-to-Dietary Sodium” value (NHE3; 0.03 mg/kg po)?
**A.** Its value is 0.276.

**Q.** And the “Urine Volume” value (NHE3; 0.03 mg/kg po)?
**A.** Its value is 2.7 mL.

**Q.** And the Phosphorus-to-Creatinine (NHE3; 0.1 mg/kg po)?
**A.** Its Phosphorus-to-Creatinine is 12.3 mg/mg.

**Q.** And the Sodium-to-Creatinine (NHE3; 0.1 mg/kg po)?
**A.** Its Sodium-to-Creatinine is 5.3 mg/mg.

**Q.** And the “Total Urinary Phosphorus” value (NHE3; 0.1 mg/kg po)?
**A.** The value was 7247 µg.

**Q.** And the “Total Urinary Sodium” value (NHE3; 0.1 mg/kg po)?
**A.** Its value is 2850 µg.

**Q.** What about the “Urinary-to-Dietary Phosphate” value (NHE3; 0.1 mg/kg po) of the same compound?
**A.** The value was 0.197.

**Q.** What about the “Urinary-to-Dietary Sodium” value (NHE3; 0.1 mg/kg po) of the same compound?
**A.** The value was 0.105.

**Q.** And the “Urine Volume” value (NHE3; 0.1 mg/kg po)?
**A.** The value was 1.7 mL.

**Q.** And the Phosphorus-to-Creatinine (NHE3; 0.3 mg/kg po)?
**A.** Its Phosphorus-to-Creatinine is 12 mg/mg.

**Q.** And the Sodium-to-Creatinine (NHE3; 0.3 mg/kg po)?
**A.** Its Sodium-to-Creatinine is 2.4 mg/mg.

**Q.** What about the “Total Urinary Phosphorus” value (NHE3; 0.3 mg/kg po) of the same compound?
**A.** The value was 6250 µg.

**Q.** And the “Total Urinary Sodium” value (NHE3; 0.3 mg/kg po)?
**A.** The value was 1095 µg.

**Q.** And the “Urinary-to-Dietary Phosphate” value (NHE3; 0.3 mg/kg po)?
**A.** The value was 0.168.

**Q.** What about the “Urinary-to-Dietary Sodium” value (NHE3; 0.3 mg/kg po) of the same compound?
**A.** The value was 0.039.

**Q.** What about the “Urine Volume” value (NHE3; 0.3 mg/kg po) of the same compound?
**A.** Its value is 1 mL.

**Q.** What about the Phosphorus-to-Creatinine (NHE3; 1 mg/kg po) of the same compound?
**A.** The Phosphorus-to-Creatinine was 11.3 mg/mg.

**Q.** What about the Sodium-to-Creatinine (NHE3; 1 mg/kg po) of the same compound?
**A.** The Sodium-to-Creatinine was 2.4 mg/mg.

**Q.** What about the “Total Urinary Phosphorus” value (NHE3; 1 mg/kg po) of the same compound?
**A.** Its value is 7081 µg.

**Q.** What about the “Total Urinary Sodium” value (NHE3; 1 mg/kg po) of the same compound?
**A.** The value was 1400 µg.

**Q.** What about the “Urinary-to-Dietary Phosphate” value (NHE3; 1 mg/kg po) of the same compound?
**A.** The value was 0.191.

**Q.** What about the “Urinary-to-Dietary Sodium” value (NHE3; 1 mg/kg po) of the same compound?
**A.** Its value is 0.051.

**Q.** What about the “Urine Volume” value (NHE3; 1 mg/kg po) of the same compound?
**A.** The value was 1.4 mL.

**Q.** And the Phosphorus-to-Creatinine (NHE3; 3 mg/kg po)?
**A.** The Phosphorus-to-Creatinine was 9.5 mg/mg.

**Q.** And the “Total Urinary Phosphorus” value (NHE3; 3 mg/kg po)?
**A.** Its value is 5346 µg.

**Q.** What about the “Total Urinary Sodium” value (NHE3; 3 mg/kg po) of the same compound?
**A.** Its value is 612 µg.

**Q.** What about the “Urinary-to-Dietary Phosphate” value (NHE3; 3 mg/kg po) of the same compound?
**A.** Its value is 0.144.

**Q.** What about the “Urinary-to-Dietary Sodium” value (NHE3; 3 mg/kg po) of the same compound?
**A.** Its value is 0.022.

**Q.** And the “Urine Volume” value (NHE3; 3 mg/kg po)?
**A.** Its value is 1 mL.

**Q.** What about the Sodium-to-Creatinine (NHE3; 3 mg/kg po, 3 mg/kg) of the same compound?
**A.** The Sodium-to-Creatinine was 1.0 ± 0.4 mg/mg and 1 mg/mg.

**Q.** What about the “ED50, urinary phosphorus excretion” value (NHE3; urinary-to-dietary phosphorus) of the same compound?
**A.** Its value is 0.041 mg/kg.

**Q.** And the “ED50, urinary sodium excretion” value (NHE3; urinary-to-dietary sodium)?
**A.** Its value is 0.058 mg/kg.

Reference: paper PMC10817170, “Effect of an NHE3 inhibitor in combination with an NPT2b inhibitor on gastrointestinal phosphate absorption in Rodent models” (PLOS ONE, 2024)
